Patent US20040219543A1, “Method for specifically detecting, isolating and characterizing cells from body samples by transfecting nucleic acid constructs” (priority 2001, published 2004)

Assays:
PPARδ = target: T1, PPARδ (Homo sapiens, UniProt Q03181); test: PPARδ-responsive αGFPT204I reporter gene expression in transfected SW480 cells incubated with NSAIDs, flow cytometry; assay type: cell-based; details: 300 μM, 10 hour incubation of transfected SW480 cells; expression returns virtually to background level
T1 construct: Because of Wnt signal activity, SW480 cells overexpress the transcription factor PPARδ; endogenous in cells; host or cells: SW480 colon carcinoma cells
T1 sequence (Q03181 1-441): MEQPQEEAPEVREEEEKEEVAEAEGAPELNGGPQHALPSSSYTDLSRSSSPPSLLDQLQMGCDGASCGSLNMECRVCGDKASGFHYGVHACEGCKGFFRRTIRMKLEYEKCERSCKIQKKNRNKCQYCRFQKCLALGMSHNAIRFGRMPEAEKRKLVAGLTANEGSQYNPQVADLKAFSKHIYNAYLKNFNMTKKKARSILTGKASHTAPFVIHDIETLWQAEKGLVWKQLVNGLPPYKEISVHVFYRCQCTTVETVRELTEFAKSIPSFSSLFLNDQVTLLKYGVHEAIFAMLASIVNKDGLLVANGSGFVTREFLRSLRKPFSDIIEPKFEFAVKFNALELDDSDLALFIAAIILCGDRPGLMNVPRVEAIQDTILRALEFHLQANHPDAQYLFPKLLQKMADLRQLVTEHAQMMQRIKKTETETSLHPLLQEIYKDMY

tumor cells = details: by inhibiting the PPARδ transcription factor; cited from earlier work

Compound | inhibition of the observed activation of the FOP-αGFPT204I reporter gene in the presence of functional PPARδ-DNA binding sites (PPARδ) | growth of tumor cells (tumor cells)
CSc1ccc(/C=C2/C(C)=C(CC(=O)O)c3cc(F)ccc32)cc1 [Sulindac sulphide] | significantly inhibits | –
CC(=O)Oc1ccccc1C(=O)O [aspirin] | – | able to inhibit the growth of tumor cells
COc1ccc2c(c1)c(CC(=O)O)c(C)n2C(=O)c1ccc(Cl)cc1 [indomethacin] | significantly inhibits | –
CC1=C(CC(=O)O)c2cc(F)ccc2/C1=C\c1ccc([S+](C)[O-])cc1 (stereo not shown) [sulindac] | – | able to inhibit the growth of tumor cells
